Experimental findings from ChEMBL document CHEMBL1132541, “New quaternary ammonium oxicam derivatives targeted toward cartilage: synthesis, pharmacokinetic studies, and antiinflammatory potency” (J Med Chem, 1999) are described below.

The data set concerns Rattus norvegicus. Kind of data set: Maximal blood concentration after oral administration of a 30 umol/kg dose of compound. Type of data set: ADME, organism-based. Set-up: dose 30 umol/kg, route oral. The conditions noted are these: in vivo.

Each structure is given as a SMILES string.

Regarding `CN1C(C(=O)Nc2cccc[n+]2C)=C(O)c2ccccc2S1(=O)=O.[I-]`, the Cmax was determined as 5.5 nmol/g.

The compound `CN1C(C(=O)Nc2ccccn2)=C(O)c2ccccc2S1(=O)=O` [PIROXICAM] had a Cmax of 47.8 nmol/g.
